# Measurements from patent US20260285857A1, “BICYCLIC AND HETEROCYCLIC AMIDE COMPOUNDS” (priority 2024, published 2026).
# System: immunoglobulin light chain protein WIL-FL T46L
# Experiment: Differential scanning fluorimetry (thermal shift) assay
# Type: binding
# Details: not given
row,SMILES,DSF
1,CNC(=O)c1nc2c(C)cc(N3CC[C@](C)(c4cccc(F)c4)C3)cn2n1 [Compound 32],***** (key: 0-0.5° C.=*; >0.5-1 °C =**; >1-1.5° C.=***; >1.5-2.5° C.=****; >2.5° C.=*****)

# Same assay, conditions: Table A; temperature shift [Tm]compound-[Tm]vehicle; recombinant WIL-FL T46L
row,SMILES,DSF
1,Cc1cc(N2CC[C@](C)(c3ccccc3)C2)cn2nc(C(=O)N3CC45CN(c6cccc(C(=O)O)n6)CC4(C3)C5)nc12 (stereo partly shown) [Compound 281],***** (>2.5° C.=*****)
2,Cc1cc(OC[C@H](C)c2ccccc2)cn2nc(C(=O)NC3COC4(CCOC4)C3)nc12 (stereo partly shown) [Compound 303],***** (>2.5° C.=*****)
3,Cc1noc(C2(C)CCN(c3cc(C)c4nc(C(=O)N5C[C@@H]6CN(c7cccc(C(=O)O)n7)C[C@@H]6C5)nn4c3)C2)n1 (stereo partly shown) [Compound 300],*** (>1-1.5° C.=***)
4,Cc1nc(C2C3(CO)COC2(c2nc4c(C)cc(N5CC[C@](C)(c6ccccc6)C5)cn4n2)C3)n[nH]1 (stereo partly shown) [Compound 43],***** (>2.5° C.=*****)
5,Cc1cc(N2CC[C@](C)(c3ccccc3)C2)cn2nc(C(=O)NC3CC4(C3)CC(N3CCCC(C(=O)O)C3)C4)nc12 (stereo partly shown) [Compound 380],***** (>2.5° C.=*****)
6,Cc1cc(N2CC[C@](C)(c3ccccc3)C2)cn2nc(S(=O)(=O)NC3CCNC3)nc12 (stereo partly shown) [Compound 326],***** (>2.5° C.=*****)
7,Cc1cc(N2CC[C@](C)(c3ccccc3)C2)cn2nc(C(=O)N[C@H]3COCC[C@@H]3O)nc12 [Compound 157],***** (>2.5° C.=*****)
8,Cc1cc(N2CC[C@](C)(c3ccccc3)C2)cn2nc(C(=O)N3CCCC4(CC(N5CC6C(C5)C6C(=O)O)CO4)C3)nc12 (stereo partly shown) [Compound 355],***** (>2.5° C.=*****)
9,Cc1cc(N2CC[C@](C)(c3ccccc3)C2)cn2nc(C(=O)NC34CC3CN(c3cccc(C(=O)O)n3)C4)nc12 (stereo partly shown) [Compound 232],***** (>2.5° C.=*****)
10,Cc1cc(OC[C@H](C)c2ccccc2)cn2nc(C(=O)N[C@@H]3CC[C@H]3O)nc12 [Compound 319],***** (>2.5° C.=*****)
11,CNC(=O)c1nc2c(C(C)C)cc(N3CC[C@](C)(c4ccccc4)C3)cn2n1 [Compound 337],**** (>1.5-2.5° C.=****)
12,Cc1cc(N2CC[C@](C)(c3ccccc3)C2)cn2nc(C(=O)NC3(C)CCN(c4ccnc(C(=O)O)c4)CC3)nc12 [Compound 282],***** (>2.5° C.=*****)
13,Cc1cc(N2CC[C@](C)(c3ccccc3)C2)cn2nc(C(=O)N3CC[C@]4(CCN(c5cc(C(=O)O)ccn5)C4)C3)nc12 [Compound 270],***** (>2.5° C.=*****)
14,Cc1cc(OC[C@H](C)c2ccccc2)cn2nc(C(=O)NCC(C)(C)O)nc12 [Compound 317],***** (>2.5° C.=*****)
15,Cc1cc(N2CC[C@](C)(c3ccccc3)C2)cn2nc(C(=O)NC34COC(CO)(C3)C4)nc12 [Compound 173],***** (>2.5° C.=*****)
16,Cc1cc(N2CC[C@](C)(c3ccccc3)C2)cn2nc(C34CC(N(C)C)(CO3)C4CO)nc12 (stereo partly shown) [Compound 50],***** (>2.5° C.=*****)
17,Cc1cc(N2CC[C@](C)(c3ccccc3)C2)cn2nc(C(=O)NCC(C)(C)C(=O)O)nc12 [Compound 136],***** (>2.5° C.=*****)
18,Cc1cc(N2CC[C@](C)(c3ccccc3)C2)cn2nc(C(=O)NC3CNC(C(F)(F)F)C3)nc12 (stereo partly shown) [Compound 203],***** (>2.5° C.=*****)
19,"Cc1cc(N2CCC(C)(C3CC4(CC4)C3)C2)cn2nc(C(=O)N3C[C@@H]4CN(c5cccc(C(=O)O)n5)C[C@@H]4C3)nc12 (stereo partly drawn) [Compound 23, 6-((3aR,6aS)-5-(8-methyl-6-(3-methyl-3-(spiro[2.3]hexan-5-yl)pyrrolidin-1-yl)-[1,2,4]triazolo[1,5-a]pyridine-2-carbonyl)hexahydropyrrolo[3,4-c]pyrrol-2(1H)-yl)picolinic acid]",**** (>1.5-2.5° C.=****)
20,Cc1cc(N2CC[C@](C)(c3ccccc3)C2)cn2nc(C(=O)NC3CCN(c4ccnc(-c5nnn[nH]5)c4)CC3)nc12 [Compound 284],***** (>2.5° C.=*****)
21,CCOC(=O)C1C2CN(C3CC4(CC(NC(=O)c5nc6c(C)cc(N7CC[C@](C)(c8ccccc8)C7)cn6n5)C4)C3)CC21 (stereo partly shown) [Compound 378],***** (>2.5° C.=*****)
22,Cc1cc(N2CC[C@](C)(c3ccccc3)C2)cn2nc(C(=O)NC3CCC(c4cccc(C(=O)O)n4)OC3)nc12 (stereo partly shown) [Compound 254],***** (>2.5° C.=*****)
23,CC(O)c1cc(N2CC[C@](C)(c3ccccc3)C2)cn2nc(C(=O)NC3CC4(C3)CC(N3CC5C(C3)C5C(=O)O)C4)nc12 (stereo partly shown) [Compound 341],***** (>2.5° C.=*****)
24,Cc1cc(N2CC[C@](C)(c3ccccc3)C2)cn2nc(C(=O)NCC3(O)COC3)nc12 [Compound 106],***** (>2.5° C.=*****)
25,Cc1cc(N2CC[C@](C)(c3ccccc3)C2)cn2nc(C(=O)NC3COC4(CCN(c5cccc(C(=O)O)n5)C4)C3)nc12 (stereo partly shown) [Compound 220],***** (>2.5° C.=*****)
26,Cc1cc(N2CCC(C)(c3ccc(F)cc3F)C2)cn2nc(C(=O)N3C[C@@H]4CN(c5cccc(C(=O)O)n5)C[C@@H]4C3)nc12 (stereo partly shown) [Compound 388],**** (>1.5-2.5° C.=****)
27,"CNC(=O)c1nc2c(C)cc(OC3CCC3(C)c3ccccc3)cn2n1 (stereo not shown) [Compound 16, N,8-dimethyl-6-(2-methyl-2-phenylcyclobutoxy)-[1,2,4]triazolo[1,5-a]pyridine-2-carboxamide]",* (0-0.5° C.=*)
28,Cc1cc(N2CC[C@](C)(c3ccccc3)C2)cn2nc(C(=O)N3CC4CN(c5cccc(C(=O)O)n5)CC4(C(N)=O)C3)nc12 (stereo partly shown) [Compound 255],***** (>2.5° C.=*****)

# Same assay, conditions: Table B; temperature shift [Tm]compound-[Tm]vehicle; recombinant WIL-FL T46L
row,SMILES,DSF
1,Cc1cc(N2CC[C@](C)(c3ccccc3)C2)cn2nc(C(=O)N3CCC4(CCN(c5cncc(C(=O)O)c5)C4)C3)nc12 (stereo partly shown) [Compound 717],***** (>2.5° C.=*****)
2,Cc1cc(N2CC[C@](C)(c3ccccc3)C2)cn2nc(C(=O)N3CCC4(CCCC(C(=O)O)C4)C3)nc12 (stereo partly shown) [Compound 606],***** (>2.5° C.=*****)
3,CCOC(=O)Nc1n[nH]c(C2C3COC2(c2nc4c(C)cc(N5CC[C@](C)(c6ccccc6)C5)cn4n2)C3)n1 (stereo partly shown) [Compound 551],***** (>2.5° C.=*****)
4,"Cc1cc(N2CC[C@](C)(c3ccccc3)C2)cn2nc(C34CC(N5CCC(C(=O)O)CC5)(CO3)C4)nc12 [Compound 472, (R)-1-(1-(8-methyl-6-(3-methyl-3-phenylpyrrolidin-1-yl)-[1,2,4]triazolo[1,5-a]pyridin-2-yl)-2-oxabicyclo[2.1.1]hexan-4-yl)piperidine-4-carboxylic acid]",***** (>2.5° C.=*****)
5,Cc1cc(N2CC[C@](C)(c3ccccc3)C2)cn2nc(C34CC(C(=O)N[C@@H]5COC[C@H]5O)(CO3)C4)nc12 [Compound 441],***** (>2.5° C.=*****)
6,Cc1cc(N2CC[C@](C)(c3ccccc3)C2)cn2nc([C@]34C[C@H](CO3)[C@@H]4N3CC4(CC4)NC3=O)nc12 [Compound 523],***** (>2.5° C.=*****)
7,Cc1cc(N2CC[C@](C)(c3ccccc3)C2)cn2nc(C34CC(CO3)C4c3nc(NS(=O)(=O)C4COC(C(=O)O)C4)n[nH]3)nc12 (stereo partly shown) [Compound 568],***** (>2.5° C.=*****)
8,CCC1(c2ccccc2)CN(c2cc(C)c3nc(C45CC(CO)(CO4)C5c4nc(C)n[nH]4)nn3c2)C1 (stereo not shown) [Compound 579],**** (>1.5-2.5° C.=****)
9,"Cc1cc(N2CC[C@](C)(c3ccccc3)C2)cn2nc(C(=O)N3CCC4(CCC(C5CCC(C(=O)O)CC5)C4)C3)nc12 (stereo partly drawn) [Compound 674, 4-(2-(8-methyl-6-((R)-3-methyl-3-phenylpyrrolidin-1-yl)-[1,2,4]triazolo[1,5-a]pyridine-2-carbonyl)-2-azaspiro[4.4]nonan-7-yl)cyclohexane-1-carboxylic acid]",***** (>2.5° C.=*****)
10,Cc1cc(N2CC[C@](C)(c3ccccc3)C2)cn2nc(C34CC(CO3)C4c3nc(NS(=O)(=O)C4CC(C)(C(=O)O)C4)n[nH]3)nc12 (stereo partly shown) [Compound 565],***** (>2.5° C.=*****)
11,"Cc1cc(N2CC[C@](C)(c3ccccc3)C2)cn2nc(C34CC(CC(=O)Nc5cccc(C(=O)O)n5)(CO3)C4)nc12 [Compound 460, 6-[[2-[1-[8-methyl-6-[(3R)-3-methyl-3-phenyl-pyrrolidin-1-yl]-[1,2,4]triazolo[1,5-a]pyridin-2-yl]-2-oxabicyclo[2.1.1]hexan-4-yl]acetyl]amino]pyridine-2-carboxylic acid]",***** (>2.5° C.=*****)
12,"Cc1cc(N2CC[C@](C)(c3ccccc3)C2)cn2nc(C34CC(COCC(=O)O)(CO3)C4)nc12 [Compound 459, 2-[[1-[8-methyl-6-[(3R)-3-methyl-3-phenyl-pyrrolidin-1-yl]-[1,2,4]triazolo[1,5-a]pyridin-2-yl]-2-oxabicyclo[2.1.1]hexan-4-yl]methoxy]acetic acid]",***** (>2.5° C.=*****)
13,"Cc1cc(N2CC[C@](C)(c3ccccc3)C2)cn2nc(C(=O)N3CCC4(CC(=O)N(c5cccc(C(=O)O)n5)C4)C3)nc12 (stereo partly drawn) [Compound 671, 6-[7-[8-methyl-6-[(3R)-3-methyl-3-phenyl-pyrrolidin-1-yl]-[1,2,4]triazolo[1,5-a]pyridine-2-carbonyl]-3-oxo-2,7-diazaspiro[4.4]nonan-2-yl]pyridine-2-carboxylic acid]",***** (>2.5° C.=*****)
14,Cc1ncn(CC23COC(c4nc5c(C)cc(N6CC[C@](C)(c7ccccc7)C6)cn5n4)(C2)C3)n1 [Compound 447],***** (>2.5° C.=*****)
15,Cc1cc(N2CC[C@](C)(c3ccccc3)C2)cn2nc(C34CC(C(=O)NC5CCOC5)(CO3)C4)nc12 (stereo partly shown) [Compound 446],***** (>2.5° C.=*****)
16,Cc1cc(N2CC[C@](C)(c3ccccc3)C2)cn2nc(C34CC(NC(=O)C5CC(C(=O)O)C5)(CO3)C4)nc12 (stereo partly shown) [Compound 468],***** (>2.5° C.=*****)
17,Cc1cc(N2CC[C@](C)(c3ccccc3)C2)cn2nc(C(=O)N3CC[C@@]4(CCN(C5CC(C)(C(=O)O)C5)C4)C3)nc12 (stereo partly shown) [Compound 725],***** (>2.5° C.=*****)
18,Cc1cc(N2CC[C@](C)(c3ccccc3)C2)cn2nc(C34CC(C(=O)NCc5ccnc(C(=O)O)c5)(CO3)C4)nc12 [Compound 453],***** (>2.5° C.=*****)
19,Cc1cc(N2CC[C@](C)(c3ccccc3)C2)cn2nc(C34CC(CO3)C4c3nc(NS(=O)(=O)CC(C)(C)C(=O)O)n[nH]3)nc12 (stereo partly shown) [Compound 564],***** (>2.5° C.=*****)
20,Cc1n[nH]c(C2C3COC2(c2nc4c(CN)cc(N5CC[C@](C)(c6ccccc6)C5)cn4n2)C3)n1 (stereo partly shown) [Compound 483],***** (>2.5° C.=*****)
